# Assays:
# Type in all cases: in vivo
# [1] = tested on: green peach aphid (Myzus persicae); assay: Myzus test; conditions: 500 ppm, cabbage leaves dipped
# Procedure: Myzus Test Solvent: 7 parts by weight of dimethylformamide Emulsifier: 2 parts by weight of alkylaryl polyglycol ether To produce a suitable preparation of active compound, 1 part by weight of active compound is mixed with the stated amounts of solvent and emulsifier, and the concentrate is diluted with emulsifier-containing water to the desired concentration. Cabbage leaves (Brassica oleracea) which are heavily infested by the green peach aphid (Myzus persicae) are treated by being dipped into the preparation of active compound of the desired concentration. After the desired period of time, the kill in % is determined. 100% means that all aphids have been killed; 0% means that none of the aphids have been killed.
# [2] = tested on: larvae of the mustard beetle (Phaedon cochleariae); assay: Phaedon larvae test; conditions: 500 ppm, cabbage leaves dipped
# Procedure: (§1) Phaedon Larvae Test Solvent: 7 parts by weight of dimethylformamide Emulsifier: 2 parts by weight of alkylaryl polyglycol ether To produce a suitable preparation of active compound, 1 part by weight of active compound is mixed with the stated amounts of solvent and emulsifier, and the concentrate is diluted with emulsifier-containing water to the desired concentration. Cabbage leaves (Brassica oleracea) are treated by being dipped into the preparation of active compound of the desired concentration and are populated with larvae of the mustard beetle (Phaedon cochleariae) while the leaves are still moist. After the desired period of time, the kill in % is determined. 100% means that all beetle larvae have been killed; 0% means that none of the beetle larvae have been killed.
# [3] = tested on: greenhouse red spider mite (Tetranychus urticae); assay: Tetranychus test (OP-resistent/dip treatment); conditions: 100 ppm, bean plants dipped
# Procedure: Tetranychus Test (OP-Resistent/Dip Treatment)
# Solvent: 7 parts by weight of dimethylformamide
# Emulsifier: 2 parts by weight of alkylaryl polyglycol ether
# To produce a suitable preparation of active compound, 1 part by weight of active compound is mixed with the stated amounts of solvent and emulsifier, and the concentrate is diluted with emulsifier-containing water to the desired concentration.
# Bean plants (Phaseolus vulgaris) which are heavily infested by all stages of the greenhouse red spider mite (Tetranychus urticae) are dipped into a preparation of active compound of the desired concentration.
# After the desired period of time, the effect in % is determined. 100% means that all spider mites have been killed; 0% means that none of the spider mites have been killed.
# Alopecurus = assay: Post-emergence test (greenhouse); conditions: after three weeks
# Procedure: (§2) Solvent: 5 parts by weight of acetone
# (§3) Emulsifier: 1 part by weight of alkylaryl polyglycol ether
# (§4) To produce a suitable preparation of active compound, 1 part by weight of active compound is mixed with the stated amount of solvent, the stated amount of emulsifier is added and the concentrate is diluted with water to the desired concentration.
# (§5) Test plants of a height of 5-15 cm are sprayed with the preparation of active compound such that the particular amounts of active compound desired are applied per unit area. The concentration of the spray liquor is chosen such that the particular amounts of active compound desired are applied in 1000 l of water/ha.
# (§6) After three weeks, the degree of damage to the plants is rated in % damage in comparison to the development of the untreated control.
# (§7) The figures denote: • 0%=no effect (like untreated control) • 100%=total destruction
# Avena fatua = assay: Post-emergence test (greenhouse); conditions: after three weeks
# Procedure: as §2, §3, §4, §5, §6, §7
# Setaria = assay: Post-emergence test (greenhouse); conditions: after three weeks
# Procedure: as §2, §3, §4, §5, §6, §7
# Sugar beet = assay: Post-emergence test (greenhouse); conditions: after three weeks
# Procedure: as §2, §3, §4, §5, §6, §7
# Digitaria = assay: Post-emergence test (greenhouse); conditions: 125 g ai/ha, after three weeks
# Procedure: as §2, §3, §4, §5, §6, §7
# Echinochloa = assay: Post-emergence test (greenhouse); conditions: after three weeks
# Procedure: as §2, §3, §4, §5, §6, §7
# [4] = tested on: caterpillars of the armyworm (Spodoptera frugiperda); assay: Spodoptera frugiperda test; conditions: 500 ppm, cabbage leaves dipped
# Procedure: as §1, with “Spodoptera frugiperda” for “Phaedon Larvae”, “caterpillars” for “larvae”, “armyworm (Spodoptera frugiperda)” for “mustard beetle (Phaedon cochleariae)”, “caterpillars” for “beetle larvae”
# [5] = tested on: apple scab pathogen Venturia inaequalis; assay: Venturia test (apple)/protective; conditions: protective, evaluation 10 days after inoculation; for % efficacy: 100 g/ha
# Procedure: Venturia Test (Apple)/Protective Solvents: 24.5 parts by weight of acetone • 24.5 parts by weight of dimethylacetamide Emulsifier: 1.0 part by weight of alkylaryl polyglycol ether To produce a suitable preparation of active compound, 1 part by weight of active compound is mixed with the stated amounts of solvent and emulsifier, and the concentrate is diluted with water to the desired concentration. To test for protective activity, young plants are sprayed with the preparation of active compound at the stated application rate. After the spray coating has dried on, the plants are inoculated with an aqueous conidia suspension of the apple scab pathogen Venturia inaequalis and then remain in an incubation cabin at about 20° C. and 100% relative atmospheric humidity for 1 day. The plants are then placed in a greenhouse at about 21° C. and a relative atmospheric humidity of about 90%.
# Plasmopara viticola = assay: Plasmopara test (grapevine)/protective; conditions: protective, evaluation 6 days after inoculation; for % efficacy: 100 g/ha
# Procedure: Plasmopara Test (Grapevine)/Protective Solvents: 24.5 parts by weight of acetone • 24.5 parts by weight of dimethylacetamide Emulsifier: 1.0 part by weight of alkylaryl polyglycol ether To produce a suitable preparation of active compound, 1 part by weight of active compound is mixed with the stated amounts of solvent and emulsifier, and the concentrate is diluted with water to the desired concentration. To test for protective activity, young plants are sprayed with the preparation of active compound at the stated application rate. After the spray coating has dried on, the plants are inoculated with an aqueous spore suspension of Plasmopara viticola and then remain in an incubation cabin at 20° C. and 100% relative atmospheric humidity for 1 day. The plants are then placed in a greenhouse at about 21° C. and about 90% atmospheric humidity for 4 days. The plants are then moistened and placed in an incubation cabin for 1 day.
# Amaranthus = assay: Post-emergence test (greenhouse); conditions: 250 g ai/ha, after three weeks
# Procedure: as §2, §3, §4, §5, §6, §7
# Sinapis = assay: Post-emergence test (greenhouse); conditions: 250 g ai/ha, after three weeks
# Procedure: as §2, §3, §4, §5, §6, §7
# [6] = tested on: caterpillars of the armyworm (Spodoptera exigua); assay: Spodoptera exigua test; conditions: 500 ppm, cabbage leaves dipped
# Procedure: as §1, with “Spodoptera exigua” for “Phaedon Larvae”, “caterpillars” for “larvae”, “armyworm (Spodoptera exigua)” for “mustard beetle (Phaedon cochleariae)”, “caterpillars” for “beetle larvae”
# [7] = tested on: caterpillars of the diamondback moths (Plutella xylostella); assay: Plutella test; conditions: 500 ppm, cabbage leaves dipped
# Procedure: as §1, with “Plutella” for “Phaedon Larvae”, “caterpillars” for “larvae”, “diamondback moths (Plutella xylostella)” for “mustard beetle (Phaedon cochleariae)”, “caterpillars” for “beetle larvae”
Compound,Kill rate in % after 6 d [1],Kill rate in % after 7 d [2],Kill rate in % after 7 d [3],degree of damage to the plants in % damage (Alopecurus; 125 g ai/ha),degree of damage to the plants in % damage (Avena fatua; 125 g ai/ha),degree of damage to the plants in % damage (Setaria; 125 g ai/ha),degree of damage to the plants in % damage (Sugar beet; 125 g ai/ha),degree of damage to the plants in % damage (Digitaria),degree of damage to the plants in % damage (Echinochloa; 125 g ai/ha),Kill rate in % after 7 d [4],% efficacy [5],% efficacy (Plasmopara viticola),degree of damage to the plants in % damage (Amaranthus),degree of damage to the plants in % damage (Alopecurus; 250 g ai/ha),degree of damage to the plants in % damage (Avena fatua; 250 g ai/ha),degree of damage to the plants in % damage (Setaria; 250 g ai/ha),degree of damage to the plants in % damage (Echinochloa; 250 g ai/ha),degree of damage to the plants in % damage (Sinapis),further results
Cc1ccc(-c2ccc(Cl)cc2)cc1C1(Cl)C(=O)NC(C)(C)C1=O (centres unmarked) [Ex. I-1-1],95%,100%,100%,95%,100%,100%,0%,90%,100%,100%,–,–,–,–,–,–,–,–,"Emax at 100 g/ha ([5]; Venturia inaequalis, 240 h, read-out: % efficacy): 97%; Emax at 100 g/ha (Plasmopara viticola; Plasmopara viticola, 144 h, read-out: % efficacy): 100%"
CC1(C)NC(=O)C(Cl)(c2cc(-c3ccc(Cl)cc3)ccc2Cl)C1=O (centres unmarked) [Ex. I-1-2],–,100%,100%,90%,95%,90%,0%,100%,100%,100%,96%,100%,–,–,–,–,–,–,–
Cc1cc(C)c(C2(Cl)C(=O)NC3(CCOCC3)C2=O)cc1-c1ccc(Cl)cc1 (centres unmarked) [Ex. I-1-6],98%,100%,99%,–,–,–,–,–,–,100%,99%,94%,70%,70%,100%,95%,100%,–,–
Cc1cc(-c2ccc(Cl)cc2)cc(Cl)c1C1(Cl)C(=O)NC2(CCCOC2)C1=O (centres unmarked) [Ex. I-1-8],–,–,98%,–,–,–,–,–,–,–,–,–,70%,95%,95%,100%,100%,80%,–
CCOC1CCC2(CC1)NC(=O)C(Cl)(c1c(C)cc(-c3ccc(Cl)cc3)cc1CC)C2=O (centres unmarked) [Ex. I-1-10],–,–,–,–,–,–,–,–,–,–,–,–,80%,100%,100%,100%,100%,80%,–
Cc1ccc(-c2ccc(Cl)cc2)cc1C1(Cl)C(=O)NC(C)(C(C)C)C1=O (centres unmarked) [Ex. I-1-11],–,100%,99%,–,–,–,–,–,–,100%,100%,100%,–,95%,90%,100%,100%,–,Kill rate in % after 7 d [6]: 90%; degree of damage to the plants in % damage (Sugar beet; 250 g ai/ha): 0%; Kill rate in % after 7 d [7]: 100%

# — patent US7307044B2, “3-biphenyl-substituted-3-substituted-4-ketolactam and ketolactone and their utilization as pesticide” (Bayer CropScience AG, priority 2001, dated 2007)
